Test results taken from patent US12648942B2, “Method for treating acute ischemic stroke” (Lumosa Therapeutics Co., LTD, priority 2021, dated 2026).

Key:
[1] = test system: embolic middle cerebral artery occlusion (MCAO) rats; test: Embolic middle cerebral artery occlusion (MCAO) model in Wistar rat (Examples 2, 7-9); type: in vivo; conditions: for blood flow compared to saline treated group: measured for 3 hours, p<0.0001 vs saline; for Mean neurological severity score (NSS): 24 hours post-MCAO, scale 0-18
Experimental: At Day 0, anesthetize the rats to collect blood from the femoral artery to prepare the homologous clot. Create a partial arteriotomy with a microscissors and then insert a sterile PE-50 tubing ([…]) along the artery. Arterial blood collected in this length of the PE-50 tubing commonly generates ˜10 indusial clots that are suitable for MCAO. Keep the clot in the tube for 2 hours at room temperature and subsequently retain for 22 hours at 4° C.
At Day 1, to prepare the embolus, cut the clot containing PE-50 tubing into 32 mm segment in length and connect the segment with a 3 ml saline filled syringe with 23G needle. Push the syringe to flush the clot out of the PE-50 tubing into saline filled Petri dish. Draw and flush the clot into and out of the PE-10 tubing (draw from clot's end to avoid folding and twisting of the clot), respectively, 10-15 times to wash out the majority of the entrapped red blood cells until the clot without further RBCs releasing. Connect the PE-10 tubing to the modified PE-50 catheter and shift the clot into PE-50 catheter. Then, the modified PE-50 catheter is connected to a 100 μl Hamilton microsyringe. The clot is now ready to be used.
At Day 1, anesthetize the rats. Bluntly dissect the carotid sheath along the common carotid artery (CCA) until the ECA (ipsilateral external carotid artery), PPA (pterygopalatine artery), and ICA (internal carotid artery) bifurcation is exposed. […] Prepare laser Doppler flow probe into the tube of head. Temporarily clamp the CCA, PPA, and ICA with clip and apply a 4-0 silk suture loosely around the trunk of the ECA near bifurcation. Release the clip slowly and further advance the catheter within the ICA to enter the intracranial segment of the ICA until resistance is felt. The total length of the catheter that has been advanced is −19-22 mm from the ECA arteriotomy site. Retract the catheter 1-2 mm and slowly inject the clot with 5-10 μl of saline at rate of 10 μl/min. The percentage of regional cerebral flow (rCBF) decrease into ˜20-30% after clot injection. Wait for 30 minutes to let the clot stable at the ICA. Retract the catheter until its tip reaches the ECA/ICA bifurcation. Re-apply a clip to temporarily clamp the CCA and the ICA and then withdraw the catheter from the arteriotomy. Tighten the 4-0 silk suture around the ECA trunk to ligate the arteriotomy. Remove the clip. Wait for another 30 minutes to make sure the animal is stable and there is no blooding issue. Close the incision and terminate the anesthesia.
Neurological deficits were assessed at 24 h after MCAO surgery. The neurological function was graded on a scale of 0-18, with 0 representing normal function and 18 representing maximum neurological deficits (see FIG. 2).
24 hours after the induction of MCAO, anesthetize the rat with 5% isoflurane and use normal saline to do the perfusion from heart (150 ml). Decapitate the rat and collect the brain. Rinse the collected dish and matrix with PBS before used. To tear out clot after taking photo. Slice the brain coronally into […] 2-mm slices with a brain matrix on ice (Cut the brain into 8 pieces). Incubate the brain slices in 2% 2,3,5-triphenyltetrazolium chloride (TTC) (Sigma-Aldrich) in 1×PBS for 20 min at room temperature (avoid light) and record the result by photo. Then, using ImageJ to determine the size and extent of the infarction.
The caudal sides of all the TTC sections were scanned using a digital camera, and the images were stored as JPEG. The non-ischemic and ischemic hemisphere infarct areas were measured using image J (Image J, Bethesda, MD) software. All eight infarct area measurements were calculated with a 2 mm distance between the slices. […]

[2] = test system: photochemically induced thrombosis of the middle cerebral artery in rats; test: Photochemically induced thrombotic (PIT) stroke model in rats (Examples 3, 10); type: in vivo, rat; conditions: 24 hours after PIT surgery
Experimental: Under anesthesia, the left middle cerebral artery (MCA) was occluded by a thrombus generated at the site of photoirradiation. The left MCA was exposed via a transorbital approach. A vertical incision was made between the left orbital and the external auditory canal. The temporal muscle was reflected and a subtemporal craniotomy was performed without removing the zygomatic arch. A window of approximately 3 mm in diameter was opened at the base of the skull. The main trunk of the left MCA was visible through the window. Endothelial cells in the MCA were focally injured by a photochemical reaction between rose bengal and green illumination (X540 nm, 600,000 Lux). Rose bengal (20 mg/kg) was intravenously dose and then the MCA was exposed to green light for a period of 10 min. During surgery, animals were placed on a heating pad set at 38 C.
Twenty-four hours (±2 hrs.) after thromboembolism, and once daily for the next five days, neurologic deficits were scored according to a modified method described by Ederson et al. (Stroke, 1986, 17: 472-476). A total of “0” indicates no deficit whereas a maximal score of “15” indicates severe deficits.
Each brain was cut into six coronal blocks with a rat brain matrix (2 mm interval). Brains were post-fixed overnight in 4% paraformaldehyde at 3.1-6.2° C., stored in phosphate-buffered saline and sent out for histological processing. Each coronal block was embedded in paraffin. One coronal section from each block was taken and stained with hematoxylin and eosin (HE).
From the HE-stained sections, the infarct areas (mm^2) were manually marked using OsiriX version 8.0.2 (Pixmeo SARL, Bernex, Switzerland). The volume of ischemic infarction (mm^3) was calculated as the […] (six coronal sections per brain). Infarct volumes were calculated in cerebral cortex and basal ganglia. Total infarct volume was calculated by adding the infarct volumes of the basal ganglia and cerebral cortex.
Rats were treated with vehicle (saline), rtPA (10 mg/kg), DC009 (0.007 mg/kg, 15-minute IV infusion) after 1 hours of stroke onset, or DC009 (0.007 mg/kg, 15-minute IV infusion) after 3 hours of stroke onset. (n=10 per treatment group). At 24 hours after drug administration, rats were assessed with a neurological deficit scale (NDS).
24 hours after PIT surgery, rats were euthanized, and brains were processed for […].

[3] = DC009 0.007 mg/kg, 15-minute IV infusion, 1 hr post-PIT
[4] = DC009 0.007 mg/kg, 15-minute IV infusion, 3 hr post-PIT

Compound | blood flow compared to saline treated group ([1]; rtPA 10 mg/kg (10% IV bolus, rest infused for 30 minutes) 1 hour after stroke onset, FIG. 3) | Mean neurological severity score (NSS) ([1]; rtPA 10 mg/kg (10% IV bolus, rest infused for 30 minutes) 3 hours after stroke onset) | infarct volumes (% hemisphere) ([1]; rtPA 10 mg/kg (10% IV bolus, rest infused for 30 minutes) 3 hours after stroke onset, 24 hours, TTC) | infarction volume, Basal ganglia ([2]; rtPA 10 mg/kg, 1 hr post-PIT) [mm^3] | infarction volume, Cerebral cortex ([2]; rtPA 10 mg/kg, 1 hr post-PIT) [mm^3] | infarction volume, Basal ganglia ([2]; rtPA 10 mg/kg, 3 hr post-PIT) [mm^3] | infarction volume, Cerebral cortex ([2]; rtPA 10 mg/kg, 3 hr post-PIT) | infarction volume, Total ([2]; rtPA 10 mg/kg, 3 hr post-PIT) | Mean neurological severity score (NSS) ([1]; DC009 0.005 mg/kg, 15-minute IV infusion 3 hours after stroke onset) | infarct size compared to saline and rtPA treated groups ([1]; DC009 0.025 mg/kg at 3 and 6 hours post MCAO surgery, 24 hours after stroke, TTC, FIG. 4) | restoring occluded blood flow ([1]; DC009 0.05 mg/kg, 15-minute IV infusion 1 hour after stroke onset, FIG. 3) | blood flow compared to saline treated group ([1]; DC009 0.05, 0.1, 0.2 and 0.4 mg/kg, 15-minute IV infusion 1 hour after stroke onset, FIG. 3) | infarction volume, Basal ganglia [2, 3] | infarction volume, Cerebral cortex [2, 3] [mm^3] | infarction volume, Basal ganglia [2, 4] [mm^3] | infarction volume, Cerebral cortex [2, 4] [mm^3] | infarction volume, Total [2, 4] [mm^3]
rtPA: Alteplase (Activase), a recombinant tissue-type plasminogen activator (rtPA) [reference compound] | increased | 6.38 ± 0.74 | 43.23 ± 11.03 | 80.7 ± 4.3 | 200.0 ± 18.1 | 87.0 ± 7.0 | 173.5 ± 19.4 ** mm^3 | 260.6 ± 23.9 ** mm^3 | – | – | – | – | – | – | – | – | –
CC(NC(=O)C1CCCN1)C(=O)NC(CCCCN)C(=O)NCCCCC(NC(=O)C1Cc2cc(O)c(O)cc2C(C)(C)N1)C(=O)O (stereo not drawn) [DC009, 3S-6,7-dihydroxy-1,1-dimethyl-1,2,3,4-tetrahydro-isoquinoline-3-acyl-Lys(Pro-Ala-Lys)] | – | – | – | – | – | – | – | – | 7.13 ± 0.64 | significant smaller infarct size | good efficacy | increased | 63.7 ± 10.3 ** mm^3 | 210.6 ± 26.4 | 94.8 ± 6.2 | 227.7 ± 18.4 | 322.5 ± 23.0
